How the values were obtained:
H1N1 influenza virus = test system: H1N1 influenza virus; set-up: species or system BALB/c mice; conditions: mouse, in vivo
primary NK cells = assay type: cell-based; conditions: 24 hours incubation, 0.1-5 μg/ml, supernatant ELISA
H5N1 influenza virus = test system: H5N1 influenza virus; set-up: species or system BALB/c mice; conditions: mouse, in vivo
H5N1 virus = assay type: cell-based
721.221 target cells = assay type: cell-based; conditions: effector cells pre-incubated 24 hours with AS101; high concentrations less effective than moderate
YTS cells = assay type: cell-based
[1] = test system: human immunodeficiency virus type 1 (HIV-1); conditions: Vonsover et al., AIDS Res Hum Retroviruses 1992; cited from earlier work
[2] = test system: phosphorylated Akt (PI3k-Akt signaling); assay type: cell-based, canine
INFγ = assay type: in vivo, mice; conditions: treated 24 hours before infection, six days after infection
[3] = test system: mouse cytomegalovirus (MCMV); conditions: Sredni et al., Immunol Lett 1994; cited from earlier work
[4] = test system: H1N1 (swine) influenza virus; assay type: cell-based, swine influenza H1N1v virus

CCOC(=O)C1=C[C@@H](OC(CC)CC)[C@H](NC(C)=O)[C@@H](N)C1 [oseltamivir, reference compound]
H1N1 virus in infected mice (lung titer, real-time RT-PCR) (H1N1 influenza virus): Inhibition

Cl[TeH]1(Cl)(Cl)OCCO1 [AS101, ammonium trichloro(dioxyethylene-O,O′)tellurate]
IFN-γ secretion by primary NK cells (primary NK cells): increased secretion
toxicity to the cells (MTT) (MDCK cells): not toxic
H5N1 virus in infected mice (lung titer, real-time RT-PCR) (H5N1 influenza virus): significant inhibition
H5N1 virus titers in the lungs, each tested administration time (H5N1 influenza virus): significantly reduced
body weight loss after infection (H5N1 influenza virus; ip): weight loss was reduced somewhat
protection of cells from viral infection by supernatant of treated cells (H5N1 virus): can protect cells from viral infection
NK killing of target cells (721.221 target cells): increased NK killing
AS101 concentration at which the effect on IFN-γ secretion decreased (YTS cells): above 1 μg/ml
IFN-γ secretion by YTS cells (YTS cells): increased secretion
effect against human immunodeficiency virus type 1 (HIV-1) [1]: inhibitory effect
level of phosphorylated Akt, AS101 treatment alone [2]: increased
level of phosphorylated Akt, cells infected with H5N1 virus ([2]; MDCK cells, 2 μg/ml, 10^2×TCID50 H5N1, 24 hours): dramatically reduced levels
interferon secretion in lungs of H5N1 infected mice (INFγ): restored interferon secretion to the levels observed in uninfected mice
effect against mouse cytomegalovirus (MCMV) [3]: inhibitory effect
H1N1 virus infection, administered concomitantly with the virus [4]: strongest inhibition
H1N1 virus infection, each tested administration time [4]: inhibition
replication of H1N1 influenza virus (viral titer by ELISA) [4]: significant inhibition
H1N1 virus in infected mice (lung titer, real-time RT-PCR) (H1N1 influenza virus): significant inhibition
H1N1 virus titers in the lungs, each tested administration time (H1N1 influenza virus): significantly reduced

Reference: US20120157519A1 (priority 2009, published 2012)
